The results in this text go back to patent US10407381B2 (THE BOARD OF TRUSTEES OF THE UNIVERSITY OF ILLINOIS, priority 2015, dated 2019).

For experiment [1], the target named is 5-HT2B (Homo sapiens, UniProt P41595). Description: Calcium flux (FLIPR) assay, human 5-HT2B stably expressed in HEK-293 (Flp-In-293) cells. The note with it: human 5-HT2B in HEK-293 cells; for EC50: EC50, nM 5-HT2B, NA = no activity at 10 μM; for Emax, % 5-HT 5-HT2B: normalized to 5-HT. A general note: Calcium assays in cells follow changes in intracellular calcium, usually with a dye or a luminescent sensor.
5-HT2B, sequence (P41595 whole entry): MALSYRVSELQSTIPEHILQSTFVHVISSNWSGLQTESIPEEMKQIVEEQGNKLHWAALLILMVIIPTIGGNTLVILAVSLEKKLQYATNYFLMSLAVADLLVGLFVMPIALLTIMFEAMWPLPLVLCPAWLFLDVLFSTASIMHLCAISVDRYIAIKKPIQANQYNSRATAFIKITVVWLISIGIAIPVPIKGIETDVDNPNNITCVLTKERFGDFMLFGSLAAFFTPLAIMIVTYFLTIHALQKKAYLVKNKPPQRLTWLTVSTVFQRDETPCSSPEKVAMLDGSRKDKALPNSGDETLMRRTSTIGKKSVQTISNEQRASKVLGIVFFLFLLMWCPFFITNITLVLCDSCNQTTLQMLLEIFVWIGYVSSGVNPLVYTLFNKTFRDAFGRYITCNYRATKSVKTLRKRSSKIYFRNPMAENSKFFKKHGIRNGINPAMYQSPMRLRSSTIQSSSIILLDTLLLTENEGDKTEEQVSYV

Experiment [2] deals with T1, human 5-HT2C-INI (Homo sapiens, UniProt P28335).
T1 sequence (P28335 33-458): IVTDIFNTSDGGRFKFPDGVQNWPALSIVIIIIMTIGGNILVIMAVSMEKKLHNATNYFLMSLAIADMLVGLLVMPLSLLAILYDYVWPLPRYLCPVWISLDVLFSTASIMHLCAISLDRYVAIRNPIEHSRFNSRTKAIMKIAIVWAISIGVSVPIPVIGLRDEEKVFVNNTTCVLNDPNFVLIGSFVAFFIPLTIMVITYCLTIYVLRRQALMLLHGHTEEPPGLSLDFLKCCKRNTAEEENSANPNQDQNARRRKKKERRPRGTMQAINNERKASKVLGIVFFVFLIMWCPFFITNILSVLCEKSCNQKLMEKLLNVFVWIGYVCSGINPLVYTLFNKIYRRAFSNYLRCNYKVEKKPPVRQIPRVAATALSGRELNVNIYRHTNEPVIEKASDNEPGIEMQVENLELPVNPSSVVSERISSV
In words: Calcium flux (FLIPR) assay, human 5-HT2C-INI stably expressed in HEK-293 (Flp-In-293) cells. The note with it: human 5-HT2C-INI in HEK-293 cells, FLIPR; for EC50: EC50, nM 5-HT2C, NA = no activity at 10 μM; for Emax, % 5-HT 5-HT2C: normalized to 5-HT.

For `CCCOc1ccc(Cl)cc1C1CC1CN` (single isomer, unassigned; (-)) [(−)-Example 12, (−)-(2-(5-Chloro-2-propoxyphenyl)cyclopropyl)methanamine], in experiment [1], the EC50 worked out at 3000 nM and the “Emax, % 5-HT 5-HT2B” value is reported as “(21%) % 5-HT”. In experiment [2], the EC50 was 1230 nM and the “Emax, % 5-HT 5-HT2C” value is on record as “(31%) % 5-HT”.

Consider `CC(C)Oc1ccc(Cl)cc1C1CC1CN` (single isomer, unassigned; (-)) [(−)-Example 14, (−)-(2-(5-Chloro-2-isopropoxyphenyl)cyclopropyl)methanamine], for which, in experiment [1], the EC50 came to 5660 nM and the “Emax, % 5-HT 5-HT2B” value is reported as “(19%) % 5-HT”. For the same compound, in experiment [2], the EC50 was determined as 2480 nM and the “Emax, % 5-HT 5-HT2C” value was “(37%) % 5-HT”.

As for `COCCOc1ccc(Cl)cc1C1CC1CN` (single isomer, unassigned; (-)) [(−)-Example 17, (−)-(2-(5-Chloro-2-(2-methoxyethoxy)phenyl)cyclopropyl)methanamine], in experiment [1], the EC50 was determined as 5300 nM and the “Emax, % 5-HT 5-HT2B” value was “(32%) % 5-HT”. Besides, in experiment [2], the EC50 was 667 nM and the “Emax, % 5-HT 5-HT2C” value is listed as “(45%) % 5-HT”.

In the case of `NCC1CC1c1cc(Cl)ccc1OCCF` (single isomer, unassigned; (-)) [(−)-Example 19, (−)-(2-(5-Chloro-2-(2-fluoroethoxy)phenyl)cyclopropyl)methanamine], in experiment [1], the EC50 was determined as 4520 nM and the “Emax, % 5-HT 5-HT2B” value was “(31%) % 5-HT”. Also, in experiment [2], the EC50 came to 1130 nM and the “Emax, % 5-HT 5-HT2C” value is on record as “(59%) % 5-HT”.

Consider `NCC1CC1c1cc(Cl)ccc1OCCCF` (single isomer, unassigned; (-)) [(−)-Example 20, (−)-(2-(5-Chloro-2-(3-fluoropropoxy)phenyl)cyclopropyl)methanamine], for which, in experiment [1], the concentration giving a half-maximal response (EC50) worked out at 6170 nM and the “Emax, % 5-HT 5-HT2B” value was “(22%) % 5-HT”. In addition, in experiment [2], the EC50 turned out to be 1260 nM and the “Emax, % 5-HT 5-HT2C” value was “(24%) % 5-HT”.

Take `C=CCOc1ccc(Cl)cc1C1CC1CN` (single isomer, unassigned; (-)) [(−)-Example 23, (−)-(2-(2-(Allyloxy)-5-chlorophenyl)cyclopropyl)methanamine]: in experiment [1], the half-maximal effective concentration (EC50) worked out at 4300 nM and the “Emax, % 5-HT 5-HT2B” value is listed as “(28%) % 5-HT”. For the same compound, in experiment [2], the EC50 stood at 737 nM and the “Emax, % 5-HT 5-HT2C” value was “(42%) % 5-HT”.

On to `C#CCOc1ccc(Cl)cc1C1CC1CN` (single isomer, unassigned; (-)) [(−)-Example 26, (−)-(2-(5-Chloro-2-(prop-2-yn-1-yloxy)phenyl)cyclopropyl)methanamine], for which, in experiment [1], the concentration for a half-maximal effect (EC50) is 4410 nM and the “Emax, % 5-HT 5-HT2B” value is “(30%) % 5-HT”. In experiment [2], the EC50 was 365 nM and the “Emax, % 5-HT 5-HT2C” value is reported as “(71%) % 5-HT”.

For `NCC1CC1c1c(OCCF)ccc(Cl)c1F` (single isomer, unassigned; (-)) [(−)-Example 31, (−)-(2-(3-Chloro-2-fluoro-6-(2-fluoroethoxy)phenyl)cyclopropyl)methanamine], in experiment [1], the “Emax, % 5-HT 5-HT2B” value was “(0%) % 5-HT”. Also, in experiment [2], the EC50 was 386 nM and the “Emax, % 5-HT 5-HT2C” value is recorded as “(80%) % 5-HT”.

Turning to `C=CCOc1cc(Cl)c(Cl)cc1C1CC1CN` (single isomer, unassigned; (-)) [(−)-Example 35, (−)-(2-(2-(Allyloxy)-4,5-dichlorophenyl)cyclopropyl)methanamine], the “Emax, % 5-HT 5-HT2B” value in experiment [1] is given as “(14%) % 5-HT”. For the same compound, in experiment [2], the 50% effective concentration (EC50) was 278 nM and the “Emax, % 5-HT 5-HT2C” value was “(84%) % 5-HT”.

Consider `NCC1CC1c1c(OCCF)ccc(Cl)c1Cl` (single isomer, unassigned; (-)) [(−)-Example 38, (−)-(2-(2,3-Dichloro-6-(2-fluoroethoxy)phenyl)cyclopropyl)methanamine], for which, in experiment [1], the EC50 is 10400 nM and the “Emax, % 5-HT 5-HT2B” value is “(62%) % 5-HT”. Besides, in experiment [2], the EC50 worked out at 224 nM and the “Emax, % 5-HT 5-HT2C” value is reported as “(85%) % 5-HT”.

By EC50 is commonly meant the concentration that produces a half-maximal response.
